In US8304425B2, “Pyrrolidinone, pyrrolidine-2,5-dione, pyrrolidine and thiosuccinimide derivatives, compositions and methods for treatment of cancer” (ArQule, Inc., priority 2007, dated 2012):
Counter-ions that a name gives are not always drawn. Like-named read-outs stand apart in the source and are kept apart here. Where a SMILES comes first, the peptide text is derived from it. The star is where a group is joined. Cbz = O=C(OCc1ccccc1)*; CH2F = FC*

Legend:
[1] = system: HT29 cells; assay: MTS assay; format: cell-based; details: then 48 hours drug-free medium, MTS readout
Method: HT29 cells were seeded in 96-well plates at 1,800 cells/well overnight in medium with 10% FBS. The next day, cells were treated with increasing concentrations of compounds for 24 hours at 37° C. After the treatments, the compound-containing medium was removed, cells were washed twice with PBS, and incubated in drug-free medium containing 10% FBS for an additional 48 hours. After addition of MTS and PMS for 4 hours at concentrations of 2 mg/mL and 0.92 mg/mL, respectively, the results were quantitated by spectrophotometry at λ=490 nm and IC50 for each compound was determined.

[2] = biological target: T1, Recombinant unphosphorylated c-Met comprising residues 1038-1346 (Homo sapiens, UniProt P08581); assay: c-Met 33P assay; format: biochemical; details: 15 minutes preincubation, 100 μM ATP, IGF-1Rtide substrate, read-out: c-Met, p33 assay
T1 construct: The DNA fragment encoding the kinase domain (1038-1346) was inserted into Novagen vector pet28a; His6 (N); made in house; host or cells: E. coli BL21(DE3)RIL
From the text: cDNA of full-length c-Met purchased from Origen Technologies was used as template for PCR amplification. The DNA fragment encoding the kinase domain (1038-1346) was inserted into Novagen vector pet28a between Nco1 and Sal1 sites. The primers were designed to contain a six-histidine tag to the N-terminus. In order to express dephosphorylated c-Met kinase protein, a tyrosine phosphatase PTP1B (1-283) was sequentially ligated into the made construct between Sal1 and NotI sites. A second ribosome binding site was incorporated in the PTP1B primer after the Sal1 site. The N-terminal His-tagged proteins were expressed in Circlegrow broth (Q-Biogen). The transformed E. coli cell line BL21(DE3)RIL (Stratagene) was cultured to OD=0.8 at 37° C. and induced with 0.3 mM of IPTG for overnight at 12° C. The co-expressed protein was purified by metal-chelation chromatography followed by anion and cation columns. In brief, 4 liters of cells were lysed by sonication in 140 ml buffer containing 20 mM MOPS pH=6.5, 200 mM NaCl, 7.5% glycerol, 0.1% Igepal, supplied with 1 mM PMSF. The supernatant was obtained by centrifugation at 50,000 g for 30 minutes and followed by incubation with 8 mL of Ni-NTA His Bind resin (Novagen) at 4° C. for one hour. A second step 50 mL wash buffer (with 100 mM NaCl and 5 mM imidazole) was applied after initial wash with the lysis buffer. Protein was eluted by 200 mM imidazole pH=8.5, 100 mM NaCl and 7.5% glycerol and directly cleared by passing 10 mL QFF column. The salt concentration and the pH value of the protein flow through were adjusted to 50 mM and 7.5 by dilution, and then loaded to 1 mL SP FF column. The protein was further gel-filtered in an equilibrium buffer of 20 mM TrisHCl pH=8.5, 150 mM NaCl, 7.5% glycerol and 2 mM DTT. The monomeric unphosphorylated c-Met protein was concentrated to 30 mg/mL for storage at −80° C.
Recombinant unphosphorylated c-Met comprising residues 1038-1346 (12.5 ng) was pre-incubated with increasing concentrations of compounds for 15 minutes at room temperature. Following preincubation with compounds, 100 μM of IGF-1Rtide substrate and 100 μM ATP containing 2.5 μCi [^33P-γATP] was added to the mixture. The reaction was carried out for 30 minutes in a Reaction Buffer containing 8 mM MOPS-NaOH pH=7.0, 200 μM EDTA, 5 mM Magnesium acetate, 200 μM dithiothreitol (DTT) and 10 mM Na3VO4. The reaction was then terminated with 10 μL of 3% phosphoric acid. Ten μL were transferred onto a filterplate and were washed 3-times with 1% phosphoric acid; counts were read with a microbeta counter, and IC50 for c-Met inhibition was determined for each compound.

[3] = system: HT29 cells; assay: Annexin V-Fluos cell death high content imaging after met siRNA transfection; format: cell-based; details: increased concentrations of caspase inhibitor for 1 additional day after transfection
Method: Exponentially growing HT29 cells were plated in black 96-well plates at 5,000 cells/well overnight in medium with 10% FBS. The next day, cells were transiently transfected for 2 days using DharmaFECT 4 reagent with a pool of four met-specific 21-nucleotide RNA oligonucleotides forming a 19-bp duplex core with 2-nucleotide 3′ overhang in combination (Dharmacon, Inc., Lafayette, Colo.). Transfection of gapdh siRNA (Dharmacon, Inc.) and of a non-targeting siRNA under the same conditions was done in parallel as controls (Dharmacon, Inc.). Cells were then incubated in the absence or the presence of increasing concentrations of ZvAD-FMK, an irreversible caspase inhibitor for 1 additional day. Cells were incubated for at least 10 minutes in a labeling solution (10 mM HEPES, 140 mM NaCl and 6 mM CaCl2) containing […] Hoescht 33342 (blue channel; Molecular Probes/Invitrogen Corp., Natick, Mass.), 500 times diluted Annexin V-Fluos (green channel; Roche Applied Science, Indianapolis, Ind.) and 1 μg/ml propidium iodide (red channel; Roche Applied Science). High content image acquisition and analysis were carried out using a Beckman Coulter IC100 Cytometer. The program was set to take four images per well. […] Images were processed and numbers of positive cells for each channel and each condition were determined using Cytoshop 2.1 software (Beckman Coulter, Inc.). […]

[4] = Homo sapiens, HT-29, 24 hours treatment
[5] = 24 hours treatment, read-out: HT-29, IC50

T1 sequence (P08581 1038-1346): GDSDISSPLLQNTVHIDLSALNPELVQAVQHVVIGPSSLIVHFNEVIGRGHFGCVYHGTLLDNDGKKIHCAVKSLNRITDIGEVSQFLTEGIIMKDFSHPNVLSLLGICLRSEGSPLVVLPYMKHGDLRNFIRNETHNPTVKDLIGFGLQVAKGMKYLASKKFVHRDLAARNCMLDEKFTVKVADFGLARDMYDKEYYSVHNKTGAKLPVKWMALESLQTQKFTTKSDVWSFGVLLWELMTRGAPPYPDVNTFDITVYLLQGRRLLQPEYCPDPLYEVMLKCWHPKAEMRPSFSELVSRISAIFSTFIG

Molecule | melting point | IC50 [1, 4] | IC50 [2] | levels of cell death in met siRNA transfected cells [3] | IC50 [1, 5]
c1ccc2c([C@@H]3CNC[C@H]3c3cn4c5c(cccc35)CCC4)c[nH]c2c1 (as salt: HCl) [Example 7, 1-[(3R,4R)-4-(1H-indol-3-yl)-pyrrolidin-3-yl]-5,6-dihydro-4H-pyrrolo[3,2,1-ij]quinoline] | 239 to 240 °C |  |  |  | 
O=C1NCC(c2cn3c4c(cccc24)CCC3)C1c1c[nH]c2ccccc12 (mixture of isomers) [Example 1, 4-(5,6-dihydro-4H-pyrrolo[3,2,1-ij]quinolin-1-yl)-3-(1H-indol-3-yl)-pyrrolidin-2-one] | 260 to 262 °C | ≤ 1 µM | ≥ 10 µM |  | 
O=C1NC[C@@H](c2c[nH]c3ccccc23)[C@@H]1c1cn2c3c(cccc13)CCC2 (racemic) [Example 4, (±)-trans-3-(5,6-dihydro-4H-pyrrolo[3,2,1-ij]quinolin-1-yl)-4-(1H-indol-3-yl)-pyrrolidin-2-one] | 241 to 243 °C | ≤ 1 µM | 1 to 10 µM |  | 
O=C1NC[C@@H](c2cccc(C(F)(F)F)c2)[C@@H]1c1cn2c3c(cccc13)CCC2 (racemic) [Example 5, (±)-trans-3-(5,6-Dihydro-4H-pyrrolo[3,2,1-ij]quinolin-1-yl)-4-(3-trifluoromethyl-phenyl)-pyrrolidin-2-one] | 82 to 85 °C | ≥ 10 µM |  |  | 
COc1cccc([C@@H]2CNC(=O)[C@H]2c2cn3c4c(cccc24)CCC3)c1 (racemic) [Example 6, (±)-trans-3-(5,6-Dihydro-4H-pyrrolo[3,2,1-ij]quinolin-1-yl)-4-(3-methoxy-phenyl)-pyrrolidin-2-one] | 191 to 194 °C | ≥ 10 µM |  |  | 
COC(=O)C[C@H](NC(=O)[C@H](C)NC(=O)[C@@H](NC(=O)OCc1ccccc1)C(C)C)C(=O)CF [ZvAD-FMK] (Cbz-Val-Ala-Asp(OMe)-CH2F) |  |  |  | decreased the levels of cell death | 
(3R,4R)-4-(5,6-dihydro-4H-pyrrolo[3,2,1-ij]quinolin-1-yl)-3-(1H-indol-3-yl)-5-thioxo-pyrrolidin-2-one and (3R,4R)-3-(5,6-dihydro-4H-pyrrolo[3,2,1-ij]quinolin-1-yl)-4-(1H-indol-3-yl)-5-thioxo-pyrrolidin-2-one (1/1 mixture) [Example 2] |  |  | ≤ 1 µM |  | ≤ 1 µM
(3R,4R)-4-(5,6-dihydro-4H-pyrrolo[3,2,1-ij]quinolin-1-yl)-3-(1H-indol-3-yl)-pyrrolidin-2-one and (3R,4R)-3-(5,6-dihydro-4H-pyrrolo[3,2,1-ij]quinolin-1-yl)-4-(1H-indol-3-yl)-pyrrolidin-2-one (1/1 mixture) [Example 3] |  |  | ≥ 10 µM |  | ≤ 1 µM

The next lines start with results.

melting point | IC50 [1, 4] | IC50 [2] | Molecule | levels of cell death in met siRNA transfected cells [3] | IC50 [1, 5]
 | ≤ 1 µM | ≥ 10 µM | c1ccc2c([C@@H]3CNC[C@H]3c3cn4c5c(cccc35)CCC4)c[nH]c2c1 [Example 7, 1-[(3R,4R)-4-(1H-indol-3-yl)-pyrrolidin-3-yl]-5,6-dihydro-4H-pyrrolo[3,2,1-ij]quinoline] |  | 
278 to 279 °C | ≥ 10 µM | ≥ 10 µM | CCNC(=O)N1C[C@@H](c2c[nH]c3ccccc23)[C@H](c2cn3c4c(cccc24)CCC3)C1 [Example 8, (3R,4R)-3-(5,6-dihydro-4H-pyrrolo[3,2,1-ij]quinolin-1-yl)-4-(1H-indol-3-yl)-pyrrolidine-1-carboxylic acid ethylamide] |  | 
115 to 125 °C | ≥ 10 µM | ≥ 10 µM | O=S(=O)(c1ccccc1)N1C[C@@H](c2c[nH]c3ccccc23)[C@H](c2cn3c4c(cccc24)CCC3)C1 [Example 9, 1-[(3R,4R)-1-benzenesulfonyl-4-(1H-indol-3-yl)-pyrrolidin-3-yl]-5,6-dihydro-4H-pyrrolo[3,2,1-ij]quinoline] |  | 
100 to 115 °C | ≥ 10 µM | ≥ 10 µM | CC(C)S(=O)(=O)N1C[C@@H](c2c[nH]c3ccccc23)[C@H](c2cn3c4c(cccc24)CCC3)C1 [Example 10, 1-[(3R,4R)-4-(1H-indol-3-yl)-1-(propane-2-sulfonyl)-pyrrolidin-3-yl]-5,6-dihydro-4H-pyrrolo[3,2,1-ij]quinoline] |  | 
253 to 255 °C | ≥ 10 µM | ≥ 10 µM | O=C(C1CCC1)N1C[C@@H](c2c[nH]c3ccccc23)[C@H](c2cn3c4c(cccc24)CCC3)C1 [Example 11, cyclobutyl-[(3R,4R)-3-(5,6-dihydro-4H-pyrrolo[3,2,1-ij]quinolin-1-yl)-4-(1H-indol-3-yl)-pyrrolidin-1-yl]-methanone] |  | 
202 to 204 °C | ≥ 10 µM | ≥ 10 µM | CC(C)(C)CC(=O)N1C[C@@H](c2c[nH]c3ccccc23)[C@H](c2cn3c4c(cccc24)CCC3)C1 [Example 12, 1-[(3R,4R)-3-(5,6-dihydro-4H-pyrrolo[3,2,1-ij]quinolin-1-yl)-4-(1H-indol-3-yl)-pyrrolidin-1-yl]-3,3-dimethyl-butan-1-one] |  | 
